Patent publication US5252322A, “Skin tanning compositions containing imidazoles” (The Gillette Company, priority 1992, dated 1993)

How the values were obtained:
tyrosinase [1] = test: Tyrosinase activity screening in S91 melanoma cell line; type: cell-based
Description: (§1) A screening test is employed to select compounds in vitro before in vivo testing. The better compounds are found to stimulate higher levels of tyrosinase activity in cell cultures. Often the increase in tyrosinase activity is accompanied by a small decrease in cell number.
(§2) To obtain more rapid results, the tests can be run with a melanoma cell line such as Cloudman S91 melanoma cells. However, if desired, normal human melanocytes (NHM) can also be employed. The compounds to be tested are added as aqueous solutions to the cell culture medium. After four days, the cells are harvested and counted, and a tyrosinase activity assay and a total protein determination are run on cell pellets.

tyrosinase [2] = test: Tyrosinase activity screening in normal human melanocytes (NHM); type: cell-based; settings: NHM, 0.5, 10 and 50 mM
Description: as §1, §2

[3] = system: pigmented guinea pig skin; test: In vivo tanning test on pigmented guinea pig skin
Description: To confirm the results of in vitro testing, in vivo testing was conducted on pigmented guinea pig skin. Five animals were used in each of the treatment or control groups.
1. Animals were clipped in a suitably pigmented area over the back or flank and chemically depilated prior to the first treatments. The area was at least 4 cm^2. The treatment site was 3 cm^2 and was carefully marked. Photographs of areas to be treated were taken prior to initial treatments. Animals were clipped as needed throughout the study, depilation was only done prior to evaluations.
2. Concentrations of imidazole of 0.1, 0.5, 1.0 and 2.0M were applied as a liquid in 50% EtOH. 100 μL volumes were applied via pipette and glass rod with minimal rubbing of the skin.
3. Treatments were made daily, 5 days per week for 3 weeks. Visual observations and photographic records were made at the study midpoint and 24 hours after the last treatment. Animals were clipped and depilated prior to these evaluations.
4. The animals were monitored for two weeks following the last treatment. At the end of the fifth week, animals were photographed.

tyrosinase [4] = test: Tyrosinase activity assay of cell cultures stimulated with imidazole (cell line not stated); type: cell-based; settings: four days, control (0 mM) 111.9
Description: as §1, §2
Dose-response curves from tyrosinase assays of cells stimulated with imidazole have slopes of about 1.1.

O=Cc1ncc[nH]1 [2-imidazolecarboxaldehyde] was tested. Which “tyrosinase activity versus control” value (tyrosinase [1]; at 0.5 mM (tested 0.1, 0.25, 0.5 mM)) did it give?
Its value is “elevated”.

And the “tyrosinase activity versus control” value (tyrosinase [1]; at 0.1 and 0.25 mM)?
Its value is “decreased activity”.

Which “tyrosinase activity versus control” value (tyrosinase [1]; at 50 mM (tested 0.5, 10, 50 mM)) does the source give for O=C1NCCN1 [2-imidazolidone] here?
The value was “slight increase”.

What about the “tyrosinase activity versus control” value (tyrosinase [2]) of the same compound?
The value was “moderate inhibition”.

OCc1c[nH]cn1 [4-(hydroxymethyl)imidazole] was tested. Which “tyrosinase activity versus control” value (tyrosinase [1]; at 0.25 and 0.5 mM (tested 0.1, 0.25, 0.5 mM)) did it give?
The value was “slightly increased”.

How did the “tyrosinase activity versus control” value (tyrosinase [1]; 0.5 and 10 mM, may be due to acidic pH of test solutions) turn out when O=C(O)Cc1c[nH]cn1 [4-imidazoleacetic acid] was run?
The value was “dose dependent decrease”.

How did the “tyrosinase activity versus control” value (tyrosinase [1]; at 0.5 mM (tested 0.5 and 10 mM)) turn out when N[C@@H](Cc1c[nH]cn1)C(=O)O [L-histidine monochloride monohydrate] was run?
The value was “increased tyrosinase activity”.

Which “visual observation of treated sites (darkening)” value ([3]; 0.1, 0.5, 1.0 and 2.0M in 50% EtOH, topical 100 μL daily, 5 days per week for 3 weeks) does the source give for c1c[nH]cn1 [imidazole] here?
The value was “darkening for all areas”.

And the skin irritation ([3]; 2.0M solution in 50% EtOH, topical)?
The skin irritation was “appeared to mildly irritate the skin of some of the animals”.

What about the “visual observation of treated sites (degree of tanning)” value ([3]; at 0.5 to 1.0M in 50% EtOH, topical, 3 weeks) of the same compound?
Its value is “most tanning”.

What about the “course of darkening over time” value ([3]; daily topical treatments for 3 weeks) of the same compound?
The value was “continued to increase through the third week”.

And the “number of treatments after which darkening was observed” value ([3]; daily topical treatments, 5 days per week)?
The value was 5-10 treatments.

And the “tyrosinase activity, DPM/1000 cells” value (tyrosinase [4]; 0.5 mM)?
Its value is 210.7 DPM/1000 cells.

And the “tyrosinase activity, DPM/1000 cells” value (tyrosinase [4]; 1.0 mM)?
The value was 263.2 DPM/1000 cells.

What about the “tyrosinase activity, DPM/1000 cells” value (tyrosinase [4]; 5.0 mM) of the same compound?
The value was 329.2 DPM/1000 cells.

And the “tyrosinase activity, DPM/1000 cells” value (tyrosinase [4]; 10.0 mM)?
The value was 516.1 DPM/1000 cells.
